Where “and” joins values, the source holds several entries; their conditions need not be identical. Equal values may be shown once.
Assays:
[1] = tested on: human follicular lymphoma cell line (DoHH2); experiment: Annexin V apoptosis assay, follicular lymphoma cell line DoHH2; assay type: cell-based; conditions: DoHH2, 48 hours, 25 μM alone
Method: (§1) Next the cells were cultivated in the same way, but in the combined presence of dasatinib (25 μM) and the individual trioxanes T16, T45, and T7 in concentrations of 1.0 and 10 μM (see Tables below). As mentioned above, the Annexin V apoptosis assay was used to detect the Annexin V protein on cells undergoing apoptosis. Dead cells (post-apoptopic) were determined by positivity toward propidium iodide. The percentages of apoptopic, post-apoptopic cells, and their total are shown for each test. […] Synergy is noted as moderate (*), high (**), or exceptionally high (***).
Human Follicular Lymphoma (DoHH2)

[2] = tested on: human Burkitt's lymphoma cell line (Raji); experiment: Annexin V apoptosis assay, Burkitt's lymphoma cell line Raji; assay type: cell-based; conditions: 48 hours, 25 μM alone
Method: as §1
Human Burkitt's Lymphoma (Raji)

[3] = tested on: MDA-468 breast cancer cell line; experiment: Annexin V apoptosis assay, fast proliferating MDA-468 breast cancer cells; conditions: MDA-468, 48 hours, vehicle baseline 13-18%
Source text: (§2) The same experimental set-up was also utilized to test the synergistic capacity of trioxane T59 with imatinib.
(§3) The test read-out was the Annexin V apoptosis assay kit from Becton-Dickinson, which detects the presence of the Annexin V protein on the surface of cells undergoing apoptosis and positivity toward propidium iodide for dead cells.

[4] = tested on: MCF-7 breast cancer cell line; experiment: Annexin V apoptosis assay, poorly proliferating MCF-7 breast cancer cells; conditions: MCF-7, 48 hours, vehicle baseline 13-18%
Source text: as §2, §3

rats [5] = conditions: Brewer et al. 1994; cited from earlier work
dogs = conditions: Brewer et al. 1994; cited from earlier work
CD® rats = experiment: Two-week toxicity study in CD rats; assay type: in vivo
Method: As a bellwether, the toxicity of trioxane T7 has been evaluated and compared with that of artemether in CD® rats following two weeks of oral administration (gavage) and intramuscular injection, respectively. Trioxane T7 was administered at doses of 0, 15, 30, and 60 mg/kg/day in Lipomul® emulsion, while artemether was dosed at 0, 10, 20, and 40 mg/kg/day.

rats [6] = experiment: Further testing in a group of rats (mortality); conditions: 40 mg/kg/day

Cc1nc(Nc2ncc(C(=O)Nc3c(C)cccc3Cl)s2)cc(N2CCN(CCO)CC2)n1 [Dasatinib, dasatinib]
Apoptopic Cells, in % [1]: 4.58% | Post-apoptopic Cells, in % [1]: 11.76% | Total Dead Cells, in % ([1]; vehicle baseline 13-18%): 16.34% | Apoptopic Cells, in % [2]: 7.9% | Post-apoptopic Cells, in % [2]: 15.18% | Total Dead Cells, in % ([2]; vehicle baseline 13-18%): 23.15%

Cc1ccc(NC(=O)c2ccc(CN3CCN(C)CC3)cc2)cc1Nc1nccc(-c2cccnc2)n1 [Imatinib, imatinib]
percentage of dead cells (dead+apoptotic) ([3]; 10 μM alone): 13.60% and 13.16% | percentage of dead cells (dead+apoptotic) ([4]; 10 μM alone): 14.05% and 14.15%

Oc1ccc(C=Cc2cc(O)cc(O)c2)cc1 [Resveratrol, resveratrol]
percentage of dead cells (dead+apoptotic) ([3]; 1 μM alone): 11.30% | percentage of dead cells (dead+apoptotic) ([4]; 1 μM alone): 16.05%

CO[C@H]1O[C@@H]2O[C@@]3(C)CC[C@H]4[C@H](C)CC[C@@H]([C@H]1C)[C@@]24OO3 [artemether]
reported toxicity (rats [5]): neurotoxicity | reported toxicity (dogs): neurotoxicity | toxic effects (CD® rats; two weeks intramuscular injection, 10, 20, 40 mg/kg/day): CNS excitability, neuronal chromatolysis, and gliosis in the brain stem | toxic effects at mid-dose (CD® rats; two weeks intramuscular injection, mid-dose (of 10, 20, 40 mg/kg/day)): neurotoxic manifestations were observed, including hematoxicity and hepatotoxicity | mortality (rats [6]): killed most of the rats

— US9763915B2, “Adjuvants in anti-cancer chemotherapy” (PharmOxaco SáRL, priority 2013, dated 2017)
